Experimental data reported in patent US20170035847A1, “COMPOSITIONS AND METHODS FOR TREATING INFLAMMATION-ASSOCIATED DISORDERS OF THE GASTROINTESTINAL TRACT” (TherapyX, Inc., priority 2015, published 2017).
Values belong to the compound of their own block, whether it stands above or below them.

Columns and labels:
in vivo = conditions: rat, iv
Protocol: In addition to the studies discussed above a bioavailability and pharmacokinetic study of TGFβ and ATRA was conducted following a single oral administration of PIN®-encapsulated TGFβ and ATRA in male rats, when compared to intravenous administration.

[1] = system: DSS-induced colitis in C57Black6 mice; experiment: Dextran sodium sulphate-induced colitis; assay type: in vivo, mouse
From the text: Animals: Mice 6-8-weeks old (C57Black6 mice [males: n=6; females: n=6; 12 per group]) were purchased from Harlan Nossan, San Pietro al Natisone, Udine, Italy, and housed in a vivarium under pathogen-free conditions at the Department of Biomedical Sciences in the School of Medicine at the University of Catania [Catania, Italy]. The mice were kept under standard laboratory conditions with free access to food and water. They were allowed to adapt for 1 week before starting the study. The care and use of laboratory animals was in accordance with a University of Catania IACUC-approved animal use protocol.
Colitis was induced with 3% dextran sodium sulphate [50 kDa; Sigma-Aldrich] in drinking water for 4 days. The first treatment was given 24 h before induction of colitis [Day −1] and continued every other day for 6 days.
Disease score, SAA levels and histological analysis were performed as above.
To more broadly test the ability of oral TGFβ/ATRA-loaded microspheres to ameliorate IBD, a second model, the DSS-induced colitis model, was employed. Acute colitis was induced in C57Black6 mice [equal numbers of males and females, […]] with 3% DSS[50 kDa] in drinking water for 4 days. […] Mice were monitored daily for overall disease score and weight loss. At the end of 7 days, animals were sacrificed, sera taken and colons harvested, weighed, and measured on Day 7 [24 h after final treatment]. […] SAA levels, colon weight-to-length ratios, and histology scores determined. […] Mice were sacrificed 7 days after first treatment and levels of SAA determined [FIG. 10C]. […] The colons of sacrificed mice were also analyzed for colon weight-to-length ratio [FIG. 10D]. […] Next, ascending, transverse, and descending colon from naïve C57Black6 [no disease], untreated, TGFβ/ATRA-treated, and control [fed blank particles] mice were fixed in 10% formalin, embedded in paraffin, sectioned [5 μm] and stained with H & E. Five randomly-selected sections from each mouse were scored [Table 2] for disease severity. […]

Compound: TGFβ: soluble unencapsulated protein, transforming growth factor β; human recombinant TGFβ (Peprotech)
Area under the curve [AUC] (in vivo; 0.04 mg/kg): 10 ng·h/mL | t1/2 (in vivo; 0.04 mg/kg): 5 min

AUC (in vivo; male, 1.6 mg/kg): 3500 ng·h/mL | half-life (in vivo; male, 1.6 mg/kg): 34 min
Compound: CC1=C(/C=C/C(C)=C/C=C/C(C)=C/C(=O)O)C(C)(C)CCC1 [ATRA, all-trans retinoic acid]

Compound: O=C(O)c1cc(/N=N/c2ccc(S(=O)(=O)Nc3ccccn3)cc2)ccc1O [sulphasalazine]
SAA levels, difference to no treatment ([1]; Day 7, TGFβ/ATRA 10 and 20 μg, sulphasalazine 50 mg/kg daily): significant | colon weight-to-length ratio ([1]; Day 7, control groups almost 40 mg/cm, p<0.01): 35 mg/cm | weight loss ([1]; TGFβ/ATRA 10 and 20 μg every other day, sulphasalazine 50 mg/kg daily oral for 7 days): neither sulphasalazine nor TGFβ/ATRA treatment was able to reduce weight loss
